Test results as given in patent US20250195504A1, “NALTREXAMINE DERIVATIVES BEARING 5-MEMBER HETEROCYCLIC RING SYSTEMS AND OPIOID RECEPTOR MODULATORS” (VIRGINIA COMMONWEALTH UNIVERSITY, priority 2022, published 2025).
Counter-ions that a name gives are not always drawn. Like-named read-outs stand apart in the source and are kept apart here.

Key:
[1] = target: CYP2D6 (Homo sapiens, UniProt P10635); assay: CYP450 enzyme testing, CYP2D6
[2] = target: KOR (Mus musculus, UniProt P33534); assay: KOR [35S]GTPγS binding assay; assay type: biochemical; design: expressed in transfected cells; host or cells: CHO; conditions: for Emax: read-out: 35S-GTP[γS]-Binding KOR Efficacy (% max of U50, 488H)
KOR, sequence (P33534 whole entry): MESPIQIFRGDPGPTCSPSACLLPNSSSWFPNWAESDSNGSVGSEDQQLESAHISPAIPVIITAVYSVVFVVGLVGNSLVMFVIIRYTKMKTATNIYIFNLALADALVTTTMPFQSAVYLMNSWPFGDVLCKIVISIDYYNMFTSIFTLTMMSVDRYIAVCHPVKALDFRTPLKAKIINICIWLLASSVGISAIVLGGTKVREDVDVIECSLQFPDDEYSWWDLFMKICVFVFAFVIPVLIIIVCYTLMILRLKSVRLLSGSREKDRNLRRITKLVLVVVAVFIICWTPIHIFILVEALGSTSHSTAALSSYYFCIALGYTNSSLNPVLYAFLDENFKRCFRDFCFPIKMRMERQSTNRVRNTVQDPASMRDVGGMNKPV
Experimental: (§1) The [^35S]GTPγS functional assay was conducted to determine the efficacy of the compounds at the MOR, KOR and DOR. […] The Bradford protein assay was utilized to determine and adjust the concentration of protein required for the assay. Nonspecific binding was determined with 20 μM unlabeled GTPγS. Furthermore, 3 μM DAMGO/U50488H/SNC80 was included in the assay as the maximally effective concentration of a full agonist for the MOR/KOR/DOR. After incubation, the bound radioactive ligand was separated from the free radioligand by filtration through a GF/B glass fiber filter paper using a Brandel harvester. Bound radioactivity was determined by liquid scintillation counting. All assays were determined in duplicate and repeated at least three times. Net stimulated [^35S]GTPγS binding was defined as agonist-stimulated minus basal binding in the absence of agonist. Percent of DAMGO/U50488H/SNC80 stimulated [^35S]GTPγS binding was defined as (net-stimulated binding by ligand/net-stimulated binding by 3 μM DAMGO U50488H/SNC80)×100%.

[3] = target: T1, hM2 (Homo sapiens, UniProt P08172); assay: side effect profiling, hM2; assay type: binding; conditions: for hM2 binding: at 10 uM
T1 sequence (P08172 1-466): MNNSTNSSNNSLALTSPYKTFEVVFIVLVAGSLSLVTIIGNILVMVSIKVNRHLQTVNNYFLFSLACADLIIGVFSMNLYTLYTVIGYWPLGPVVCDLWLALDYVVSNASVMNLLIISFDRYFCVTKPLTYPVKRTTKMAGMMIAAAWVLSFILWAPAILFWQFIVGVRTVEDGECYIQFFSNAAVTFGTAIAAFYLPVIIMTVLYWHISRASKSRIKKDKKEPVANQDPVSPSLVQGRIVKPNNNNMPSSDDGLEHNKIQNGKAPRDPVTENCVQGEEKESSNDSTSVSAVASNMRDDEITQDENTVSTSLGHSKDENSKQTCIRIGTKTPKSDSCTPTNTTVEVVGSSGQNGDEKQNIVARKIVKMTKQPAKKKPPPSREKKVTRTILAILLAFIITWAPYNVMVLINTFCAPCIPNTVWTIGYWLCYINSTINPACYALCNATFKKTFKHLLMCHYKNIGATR

[4] = target: T2, DOR (Homo sapiens, UniProt P41143); assay: DOR [35S]GTPγS binding assay; assay type: biochemical; conditions: Tables A, B
T2 construct: expressed in transfected cells; host or cells: CHO
T2 sequence (P41143 whole entry): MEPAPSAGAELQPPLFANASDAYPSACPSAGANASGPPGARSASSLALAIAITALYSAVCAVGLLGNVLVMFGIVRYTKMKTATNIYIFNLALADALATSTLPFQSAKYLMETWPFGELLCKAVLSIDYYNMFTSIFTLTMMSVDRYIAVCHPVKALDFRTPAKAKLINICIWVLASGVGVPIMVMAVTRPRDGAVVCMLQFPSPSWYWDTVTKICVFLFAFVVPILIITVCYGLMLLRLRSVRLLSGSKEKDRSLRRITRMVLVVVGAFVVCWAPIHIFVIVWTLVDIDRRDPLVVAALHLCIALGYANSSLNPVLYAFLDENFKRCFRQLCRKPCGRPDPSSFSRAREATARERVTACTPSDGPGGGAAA
Experimental: as §1

[5] = Protein Binding (plasma), rat
[6] = Metabolic Stability (half-life), human
[7] = target: MOR (Mus musculus, UniProt P42866); assay: MOR [35S]GTPγS functional assay (MOR-CHO membranes); assay type: biochemical; design: expressed in transfected cells; host or cells: CHO; conditions: Tables A, B
MOR, sequence (P42866 whole entry): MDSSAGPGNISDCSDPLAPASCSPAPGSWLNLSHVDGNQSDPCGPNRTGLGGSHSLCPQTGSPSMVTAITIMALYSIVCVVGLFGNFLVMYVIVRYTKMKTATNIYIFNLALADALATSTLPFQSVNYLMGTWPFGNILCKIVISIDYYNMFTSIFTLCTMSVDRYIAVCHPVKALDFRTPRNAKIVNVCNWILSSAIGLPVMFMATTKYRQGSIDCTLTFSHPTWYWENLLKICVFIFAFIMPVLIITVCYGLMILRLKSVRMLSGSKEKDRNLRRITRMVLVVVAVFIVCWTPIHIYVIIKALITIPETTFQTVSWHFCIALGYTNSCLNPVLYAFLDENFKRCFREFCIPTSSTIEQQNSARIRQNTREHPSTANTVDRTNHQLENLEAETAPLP
Experimental: The [^35S]GTPγS functional assay was conducted to determine the efficacy of the compounds at the MOR. […] The Bradford protein assay was utilized to determine and adjust the concentration of protein required for the assay. Nonspecific binding was determined with 20 μM unlabeled GTPγS. Furthermore, 3 μM DAMGO was included in the assay as the maximally effective concentration of a full agonist for the MOR. After incubation, the bound radioactive ligand was separated from the free radioligand by filtration through a GF/B glass fiber filter paper and rinsed three times with ice-cold wash buffer (50 mM Tris-HCl, pH 7.2) using the Brandel harvester. Bound radioactivity was determined by liquid scintillation counting. All assays were determined in duplicate and repeated at least three times. Net stimulated [^35S]GTPγS binding was defined as agonist-stimulated minus basal binding in the absence of agonist. Percent of DAMGO-stimulated [^35S]GTPγS binding was defined as (net-stimulated binding by ligand/net-stimulated binding by 3 μM DAMGO)×100%.
Results were reported as mean values ±SEM.
as §1, with “The [^35S]-GTPγS binding assay was carried out as well to determine the functionality on the MOR of each compound. […] The [^35S]GTPγS” for “The [^35S]GTPγS”

[8] = target: CYP2C19 (Homo sapiens, UniProt P33261); assay: CYP450 enzyme testing, CYP2C19
CYP2C19, sequence (P33261 whole entry): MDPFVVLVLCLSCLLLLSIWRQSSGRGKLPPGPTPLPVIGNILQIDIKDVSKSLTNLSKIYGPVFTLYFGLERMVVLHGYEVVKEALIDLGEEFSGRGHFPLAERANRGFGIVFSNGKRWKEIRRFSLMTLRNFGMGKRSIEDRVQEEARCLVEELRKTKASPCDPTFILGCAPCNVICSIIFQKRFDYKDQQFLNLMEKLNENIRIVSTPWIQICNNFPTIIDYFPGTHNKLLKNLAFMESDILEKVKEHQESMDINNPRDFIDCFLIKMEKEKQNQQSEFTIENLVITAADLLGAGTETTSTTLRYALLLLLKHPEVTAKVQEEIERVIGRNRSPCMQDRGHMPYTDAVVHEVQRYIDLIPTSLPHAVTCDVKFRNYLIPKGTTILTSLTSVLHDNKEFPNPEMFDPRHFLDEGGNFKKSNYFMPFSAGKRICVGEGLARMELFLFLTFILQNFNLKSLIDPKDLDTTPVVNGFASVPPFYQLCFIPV

[9] = target: T3, hM1 (Homo sapiens, UniProt P11229); assay: side effect profiling, hM1; assay type: binding; conditions: for hM1 binding: at 10 uM
T3 sequence (P11229 1-460): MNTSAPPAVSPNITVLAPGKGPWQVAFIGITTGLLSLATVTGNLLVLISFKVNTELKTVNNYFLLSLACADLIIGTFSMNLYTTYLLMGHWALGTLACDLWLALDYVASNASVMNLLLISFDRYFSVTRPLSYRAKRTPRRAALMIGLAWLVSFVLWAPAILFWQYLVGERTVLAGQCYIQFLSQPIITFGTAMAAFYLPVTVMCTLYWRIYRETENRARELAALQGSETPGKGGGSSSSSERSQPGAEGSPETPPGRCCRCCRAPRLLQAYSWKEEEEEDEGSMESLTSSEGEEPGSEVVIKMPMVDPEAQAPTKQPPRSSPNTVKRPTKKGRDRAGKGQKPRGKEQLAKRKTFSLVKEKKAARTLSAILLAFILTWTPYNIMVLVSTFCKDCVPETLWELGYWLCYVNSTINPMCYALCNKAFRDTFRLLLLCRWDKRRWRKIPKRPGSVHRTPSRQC

[10] = AMES testing
[11] = solubility; conditions: Tables A, B

CYP2D6, sequence (P10635 whole entry): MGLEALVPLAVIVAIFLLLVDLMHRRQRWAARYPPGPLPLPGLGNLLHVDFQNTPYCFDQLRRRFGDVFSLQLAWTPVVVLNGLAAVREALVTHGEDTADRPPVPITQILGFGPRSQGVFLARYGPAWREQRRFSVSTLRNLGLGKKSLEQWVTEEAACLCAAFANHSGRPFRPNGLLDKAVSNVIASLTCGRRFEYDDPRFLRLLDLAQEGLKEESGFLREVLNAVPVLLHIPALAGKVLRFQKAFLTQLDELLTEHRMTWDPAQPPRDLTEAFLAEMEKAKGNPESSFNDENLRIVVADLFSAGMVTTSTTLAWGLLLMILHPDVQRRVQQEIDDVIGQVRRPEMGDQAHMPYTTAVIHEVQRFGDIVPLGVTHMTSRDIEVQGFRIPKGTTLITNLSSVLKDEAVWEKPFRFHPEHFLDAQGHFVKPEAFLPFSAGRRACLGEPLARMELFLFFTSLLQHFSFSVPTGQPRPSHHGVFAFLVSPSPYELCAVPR

SMILES | CYP2D6 inhibition (in words) ([1]; human) | Emax [2] [%] | Ki [3] [µM] | hM2 binding [3] | 35S-GTP[γS]-Binding DOR Efficacy (% max of SNC80) [4] [%] | fraction unbound [5] | half-life [6] [h] | 35S-GTP[γS]-Binding MOR Efficacy (% max of DAMGO) [7] [%] | CYP2C19 inhibition (in words) ([8]; human) | Ki [9] [µM] | hM1 binding [9] | AMES testing [10] | Solubility [11] | EC50 ([7]; 35S-GTP[γS]-Binding MOR Potency EC50, nM) [nM] | CYP2C19 inhibition [8] | CYP2D6 inhibition (in words) [1] | CYP2C19 inhibition (in words) [8] | EC50 ([2]; Tables A, B, read-out: 35S-GTP[γS]-Binding KOR Potency EC50) [µM] | EC50 ([4]; read-out: 35S-GTP[γS]-Binding DOR Potency EC50) [µM] | EC50 ([7]; read-out: 35S-GTP[γS]-Binding MOR Potency EC50) [nM]
O=C(N[C@H]1CCC2(O)C3Cc4ccc(O)c5c4[C@@]2(CCN3CC2CC2)[C@H]1O5)c1ccc[nH]1 (stereo partly drawn) [Example 1 compound 1, 17-Cyclopropylmethyl-3,14β-dihydroxy-4,5α-epoxy-6a-[(2′-pyrrolyl)carboxamido]morphinan hydrochloride] | Only moderate at CYP2D6 and CYP2C19 | 43.4 ± 1.36 | 7.28 | 58% | 50.94 ± 5.26 | 0.43 | > 1 | 12.11 ± 2.64 | Only moderate at CYP2D6 and CYP2C19 | – | – | – | – | – | – | – | – | – | – | –
O=C(N[C@H]1CC[C@@]2(O)[C@H]3Cc4ccc(O)c5c4[C@@]2(CCN3CC2CC2)[C@H]1O5)c1cccs1 [Example 1 compound 25, 17-Cyclopropylmethyl-3,14β-dihydroxy-4,5α-epoxy-6α-(2′-thienylcarboxamido)morphinan hydrochloride] | – | 50.6 ± 0.95 | 1.9 | 81% | 48.58 ± 3.41 | 0.36 | > 1 | 21.81 ± 6.17 | – | 8.4 | 53% | No toxicity shown | Solubility: DMSO, H2O | 0.49 ± 0.09 | Only CYP2C19 inhibition (~3 uM) | – | – | – | – | –
O=C(N[C@H]1CC[C@@]2(O)[C@H]3Cc4ccc(O)c5c4[C@@]2(CCN3CC2CC2)[C@H]1O5)c1ccsc1 [Example 1 compound 31, 17-Cyclopropylmethyl-3,14β-dihydroxy-4,5α-epoxy-6α-(3′-thienylcarboxamido)morphinan hydrochloride] | – | – | – | hM2 (82% at 10 uM) | 58.5 ± 3.13 | 0.44 | > 1 | 30.66 ± 4.44 | – | – | hM1 (62% at 10 uM) | No toxicity shown | Solubility: DMSO, H2O | – | – | Only moderate at CYP2D6 and CYP2C19 | Only moderate at CYP2D6 and CYP2C19 | – | – | –
O=C(N[C@H]1CC[C@@]2(O)[C@H]3Cc4ccc(O)c5c4[C@@]2(CCN3CC2CC2)[C@H]1O5)c1nccs1 [NTZ, 17-Cyclopropylmethyl-3,14β-dihydroxy-4,5α-epoxy-6α-(2′-thiazolylcarboxamido)morphinan hydrochloride] | potent at CYP2D6 inhibition | 23.5 ± 2.03 | – | hM2 (88% at 10 uM) | 46.51 ± 2.17 | 0.4 | > 1 | 11.29 ± 1.30 | – | – | hM1 (53% at 10 uM) | No toxicity shown | Solubility: DMSO, H2O | – | – | – | – | 0.00383 ± 0.00062 | 0.0236 ± 0.00429 | 2.16 ± 0.38
